Laboratory results as given in the NIST ThermoML archive (doi:10.1021/acs.jced.7b00704).

What was measured:
[1] = refractive index (Na D-line) (dimensionless); xn = mol fraction of the nth substance listed; details: 293.15 K, 93 kPa, Liquid, Standard Abbe refractometry
[2] = Liquid, Ebulliometric method (Recirculating still)
[3] = refractive index (Na D-line) (dimensionless); details: Liquid, Standard Abbe refractometry

CC(=O)OC(C)C [1-methylethyl ethanoate] + COC(=O)OC
[1]
Details | refractive index
x1 = 0.0423 | 1.3693
x1 = 0.0899 | 1.3699
x1 = 0.183 | 1.371
x1 = 0.2918 | 1.3721
x1 = 0.4235 | 1.3733
x1 = 0.5026 | 1.374
x1 = 0.5726 | 1.3746
x1 = 0.6814 | 1.3754
x1 = 0.7285 | 1.3758
x1 = 0.7616 | 1.3759
x1 = 0.7915 | 1.3761
x1 = 0.8849 | 1.3767
x1 = 0.9449 | 1.3771
x1 = 1 | 1.3774

CC(=O)OC(C)C [1-methylethyl ethanoate]
Details | vapor or sublimation pressure [kPa]
[2], 358.92 K | 93.13

[3]
Details | refractive index
293.15 K, 93 kPa | 1.3774
298.15 K, 101.33 kPa | 1.3748

CC(=O)OCCC(C)C [3-methylbutyl ethanoate]
Details | vapor or sublimation pressure [kPa]
[2], 412.31 K | 93.13

[3]
Details | refractive index
293.15 K, 93 kPa | 1.4007
298.15 K, 101.33 kPa | 1.39842

COC(=O)OC [dimethyl carbonate] + COC(C)=O
Details | refractive index
[1], x2 = 0 | 1.3688

CCOC(C)=O [ethyl acetate]
Details | vapor or sublimation pressure [kPa]
[2], 347.58 K | 93.13

[3]
Details | refractive index
293.15 K, 93 kPa | 1.3724
298.15 K, 101.33 kPa | 1.3698

COC(=O)OC [dimethyl carbonate] + CCCCOC(C)=O
Details | refractive index
[1], x2 = 0 | 1.3688

CCCOC(C)=O [propyl ethanoate] + COC(=O)OC
[1]
Details | refractive index
x1 = 0.0846 | 1.3704
x1 = 0.1341 | 1.3714
x1 = 0.1705 | 1.372
x1 = 0.223 | 1.3731
x1 = 0.2896 | 1.3741
x1 = 0.3877 | 1.3757
x1 = 0.4374 | 1.3765
x1 = 0.4989 | 1.3775
x1 = 0.562 | 1.3784
x1 = 0.669 | 1.38
x1 = 0.7756 | 1.3815
x1 = 0.891 | 1.383
x1 = 0.9528 | 1.3838
x1 = 1 | 1.3843

CCCCOC(C)=O [butyl ethanoate] + COC(=O)OC
[1]
Details | refractive index
x1 = 0.0941 | 1.3721
x1 = 0.1143 | 1.3728
x1 = 0.1628 | 1.3743
x1 = 0.2495 | 1.377
x1 = 0.3203 | 1.379
x1 = 0.4375 | 1.3821
x1 = 0.5357 | 1.3846
x1 = 0.6438 | 1.3871
x1 = 0.7325 | 1.389
x1 = 0.7418 | 1.3893
x1 = 0.8819 | 1.3921
x1 = 0.9073 | 1.3925
x1 = 1 | 1.3943

COC(=O)OC [dimethyl carbonate] + CCOC(C)=O
[1]
Details | refractive index
x2 = 0 | 1.3688
x2 = 0.0861 | 1.3693
x2 = 0.1154 | 1.3694
x2 = 0.2095 | 1.3698
x2 = 0.3017 | 1.3702
x2 = 0.3685 | 1.3704
x2 = 0.3952 | 1.3705
x2 = 0.4303 | 1.3707
x2 = 0.5094 | 1.371
x2 = 0.5642 | 1.3712
x2 = 0.6047 | 1.3713
x2 = 0.6964 | 1.3716
x2 = 0.8026 | 1.3719
x2 = 0.8912 | 1.3722
x2 = 0.9375 | 1.3723

CCOC(C)=O [ethyl acetate] + COC(=O)OC
Details | refractive index
[1], x1 = 1 | 1.3724

COC(=O)OC [dimethyl carbonate] + CC(=O)OCCC(C)C
Details | refractive index
[1], x2 = 0 | 1.3688

COC(=O)OC [dimethyl carbonate] + CC(=O)OC(C)C
Details | refractive index
[1], x2 = 0 | 1.3688

CC(=O)OCCC(C)C [3-methylbutyl ethanoate] + COC(=O)OC
[1]
Details | refractive index
x1 = 0.0369 | 1.3706
x1 = 0.0721 | 1.3724
x1 = 0.2004 | 1.378
x1 = 0.2231 | 1.3788
x1 = 0.3091 | 1.3821
x1 = 0.4027 | 1.3854
x1 = 0.4943 | 1.3883
x1 = 0.6064 | 1.3915
x1 = 0.7185 | 1.3945
x1 = 0.8312 | 1.3972
x1 = 0.9243 | 1.3992
x1 = 1 | 1.4007

COC(=O)OC [dimethyl carbonate] + CCCOC(C)=O
Details | refractive index
[1], x2 = 0 | 1.3688

COC(C)=O [methyl ethanoate] + COC(=O)OC
[1]
Details | refractive index
x1 = 0.0985 | 1.3682
x1 = 0.1427 | 1.3679
x1 = 0.2469 | 1.3673
x1 = 0.3243 | 1.3668
x1 = 0.3794 | 1.3665
x1 = 0.445 | 1.366
x1 = 0.5283 | 1.3654
x1 = 0.6548 | 1.3645
x1 = 0.7403 | 1.3639
x1 = 0.7976 | 1.3634
x1 = 0.8939 | 1.3625
x1 = 0.9548 | 1.362
x1 = 1 | 1.3615
